Reference: ChEMBL document CHEMBL6178010, “XPO1-Targeting Selective Inhibitors of Transcriptional Activation Suppress Graft-versus-Host Disease” (J Med Chem, 2025)
pEC50: −log10 of the molar value.

How the values were obtained:
Jurkat = experiment: Cytotoxicity against human Jurkat cells assessed as suppression of cell viability incubated for 24 hrs by CellTiter-Glo assay; assay type: functional, cell-based
Exportin-1 = Exportin-1 (Homo sapiens, UniProt O14980); experiment: Inhibition of XPO1 in PMA/ionomycin-activated human Jurkat cells expressing IL-2 promoter reporter gene assessed as suppression of IL-2 transcriptional activity incubated for 6 hrs by Bright-Glo Luciferase assay; assay type: cell-based
Sequence of Exportin-1 (O14980 whole entry): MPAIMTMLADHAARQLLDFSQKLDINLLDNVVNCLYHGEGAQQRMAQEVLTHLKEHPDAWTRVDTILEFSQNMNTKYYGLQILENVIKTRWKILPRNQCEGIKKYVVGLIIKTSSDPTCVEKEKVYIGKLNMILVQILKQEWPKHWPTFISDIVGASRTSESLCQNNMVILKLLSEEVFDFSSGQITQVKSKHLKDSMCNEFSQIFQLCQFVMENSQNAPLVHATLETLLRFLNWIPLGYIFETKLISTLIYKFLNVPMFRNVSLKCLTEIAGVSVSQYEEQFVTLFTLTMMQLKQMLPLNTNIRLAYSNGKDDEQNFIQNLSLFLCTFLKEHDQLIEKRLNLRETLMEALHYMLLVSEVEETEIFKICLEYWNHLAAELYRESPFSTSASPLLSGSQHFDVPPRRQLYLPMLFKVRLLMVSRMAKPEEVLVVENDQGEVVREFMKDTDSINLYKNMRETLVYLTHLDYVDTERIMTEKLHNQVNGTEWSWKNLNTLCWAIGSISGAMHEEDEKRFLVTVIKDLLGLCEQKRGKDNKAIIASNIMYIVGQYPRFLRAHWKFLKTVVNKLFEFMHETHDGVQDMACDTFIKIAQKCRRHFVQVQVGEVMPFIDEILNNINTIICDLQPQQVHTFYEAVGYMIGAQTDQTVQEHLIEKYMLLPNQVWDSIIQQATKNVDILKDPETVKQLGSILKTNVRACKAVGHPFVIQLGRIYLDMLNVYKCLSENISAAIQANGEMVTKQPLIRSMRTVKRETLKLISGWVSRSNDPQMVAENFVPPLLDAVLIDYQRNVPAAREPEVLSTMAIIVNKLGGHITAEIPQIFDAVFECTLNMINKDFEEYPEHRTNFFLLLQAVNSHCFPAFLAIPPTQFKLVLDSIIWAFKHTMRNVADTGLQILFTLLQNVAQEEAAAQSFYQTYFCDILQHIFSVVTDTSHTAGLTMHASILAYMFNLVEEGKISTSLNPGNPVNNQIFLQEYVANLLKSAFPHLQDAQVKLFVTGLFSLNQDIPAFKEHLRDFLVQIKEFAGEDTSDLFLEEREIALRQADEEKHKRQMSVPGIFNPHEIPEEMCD

XPO1 = experiment: Selectivity ratio of EC50 for cytotoxicity against human Jurkat cells assessed as suppression of cell viability to EC50 for inhibition of XPO1 in PMA/ionomycin-activated human Jurkat cells expressing IL-2 promoter reporter gene assessed as suppression of IL-2 transcriptional activity; assay type: toxicity, cell-based; settings: read-out: Ratio EC50
[1] = Metabolic stability in mouse liver microsome assessed as half life; assay type: ADME; settings: liver microsomes
[2] = Metabolic stability in mouse liver microsome assessed as intrinsic clearance; assay type: ADME; settings: liver microsomes, read-out: CLH

CC1=CC(=O)N(Nc2ccc(C(F)(F)F)c(N3CC4CC(C4)C3)n2)C1=O
pEC50 (Jurkat): 7.42
pEC50 (Exportin-1): 8.14
selectivity ratio (XPO1): 5.2

CC1=CC(=O)N(Nc2ccc(C(F)(F)F)c(N3CC(F)(F)C3)n2)C1=O
pEC50 (Jurkat): 6.86
pEC50 (Exportin-1): 7.64
selectivity ratio (XPO1): 6
half-life [1]: < 10 min
microsomal CLint [2]: > 139 µL/min/mg

CC1=CC(=O)N(Nc2nc(-c3ccccc3)nn3cccc23)C1=O
pEC50 (Jurkat): 6.39
pEC50 (Exportin-1): 7.18
selectivity ratio (XPO1): 6.2
half-life [1]: 75 min
microsomal CLint [2]: 19 µL/min/mg

CC1=CC(=O)N(Nc2nc(N3CC(F)(F)C3)nn3cccc23)C1=O
pEC50 (Jurkat): 6.35
pEC50 (Exportin-1): 7.24
selectivity ratio (XPO1): 7.7

CC1=CC(=O)N(N(C)c2nc(N3CCCC(F)(F)C3)nn3cccc23)C1=O
pEC50 (Jurkat): 5.37
pEC50 (Exportin-1): 6.68
selectivity ratio (XPO1): 20.5

CC1=CC(=O)N(N(C)c2nc(N(C)C3CCCC3)nn3cccc23)C1=O
pEC50 (Jurkat): 6.38
pEC50 (Exportin-1): 7.02
selectivity ratio (XPO1): 4.4

CC1=CC(=O)N(Nc2ccc(C(F)(F)F)c(Cl)c2)C1=O
pEC50 (Jurkat): 8.07
pEC50 (Exportin-1): 8.82
selectivity ratio (XPO1): 5.7

CO[C@@H]1CCN(c2nc(NN3C(=O)C=C(C)C3=O)ccc2C(F)(F)F)C1
pEC50 (Jurkat): 6.40
pEC50 (Exportin-1): 7.60
selectivity ratio (XPO1): 16

CC1=CC(=O)N(N(C)c2ccc(C(F)(F)F)c(N3CCCCCC3)n2)C1=O
pEC50 (Jurkat): 7.44
pEC50 (Exportin-1): 8.60
selectivity ratio (XPO1): 14.4

CC1=CC(=O)N(N(C)c2nc(N3CCCCC3)nn3cccc23)C1=O
pEC50 (Jurkat): 6.41
pEC50 (Exportin-1): 7.21
selectivity ratio (XPO1): 6.3

CN(c1ccc(C(F)(F)F)c(N2CC(F)(F)C2)n1)N1CC=CC1=O
pEC50 (Jurkat): 7.09
pEC50 (Exportin-1): 7.34
selectivity ratio (XPO1): 1.8

CC1=CC(=O)N(Nc2ccc(C(F)(F)F)c(Cl)n2)C1=O
half-life [1]: 26.1 min
microsomal CLint [2]: 53 µL/min/mg

CC1=CC(=O)N(Nc2ccc(F)c(N3CC(F)(F)C3)n2)C1=O
pEC50 (Jurkat): 6.63
pEC50 (Exportin-1): 7.40
selectivity ratio (XPO1): 5.8

COCC#Cc1cc(NN2C(=O)C=C(C)C2=O)cc(C(F)(F)F)c1
pEC50 (Jurkat): 6.16
pEC50 (Exportin-1): 7.21
selectivity ratio (XPO1): 11.4

CC1=CC(=O)N(Nc2ncc(C(F)(F)F)c(Cl)n2)C1=O
pEC50 (Jurkat): 6.47
pEC50 (Exportin-1): 6.81
selectivity ratio (XPO1): 2.2
half-life [1]: 19.9 min
microsomal CLint [2]: 70 µL/min/mg

CNc1nc(NN2C(=O)C=C(C)C2=O)ccc1C(F)(F)F
pEC50 (Jurkat): 6.18
pEC50 (Exportin-1): 7.43
selectivity ratio (XPO1): 17.9

CC1=CC(=O)N(N(C)c2nc(N(C)CC3CC3)nn3cccc23)C1=O
pEC50 (Jurkat): 6.73
pEC50 (Exportin-1): 7.54
selectivity ratio (XPO1): 6.4
half-life [1]: 8.5 min
microsomal CLint [2]: 163 µL/min/mg

CC1=CC(=O)N(Nc2nc(N3CCCCC3)nn3cccc23)C1=O
pEC50 (Jurkat): 6.83
pEC50 (Exportin-1): 7.52
selectivity ratio (XPO1): 4.9

CC1=CC(=O)N(N(C)c2nc(N3CC(F)(F)C3)nn3cccc23)C1=O
pEC50 (Jurkat): 5.65
pEC50 (Exportin-1): 6.60
selectivity ratio (XPO1): 9

CC1=CC(=O)N(Nc2nc(C3CC3)nn3cccc23)C1=O
pEC50 (Jurkat): 6.46
pEC50 (Exportin-1): 6.97
selectivity ratio (XPO1): 3.2

CC1=CC(=O)N(N(C)c2ccc(C(F)(F)F)c(N3CC(F)(F)C3)n2)C1=O
pEC50 (Jurkat): 7.33
pEC50 (Exportin-1): 8.15
selectivity ratio (XPO1): 6.6

CC1=CC(=O)N(Nc2ccc(C(F)(F)F)c(N3CCC3)n2)C1=O
pEC50 (Jurkat): 6.36
pEC50 (Exportin-1): 7.96
selectivity ratio (XPO1): 39.5
half-life [1]: < 10 min
microsomal CLint [2]: > 139 µL/min/mg

CC1=CC(=O)N(Nc2nc(Cl)c(C(F)(F)F)cc2F)C1=O
pEC50 (Jurkat): 7.52
pEC50 (Exportin-1): 8.05
selectivity ratio (XPO1): 3.3
half-life [1]: 11.4 min
microsomal CLint [2]: 121 µL/min/mg

O=C(Nc1cc(C(F)(F)F)cc(C(F)(F)F)c1)c1cnc(Cl)nc1C(F)(F)F
half-life [1]: < 10 min
microsomal CLint [2]: > 139 µL/min/mg

CC1=CC(=O)N(Nc2nc(Cl)nn3cccc23)C1=O
pEC50 (Jurkat): 6.09
pEC50 (Exportin-1): 7.12
selectivity ratio (XPO1): 10.7

CC1=CC(=O)N(N(C)c2ccc(C(F)(F)F)c(N3CCC(F)(F)CC3)n2)C1=O
pEC50 (Jurkat): 7.12
pEC50 (Exportin-1): 8.01
selectivity ratio (XPO1): 7.7

CC1=CC(=O)N(Nc2ccc(C(F)(F)F)c(N3CCCC3)n2)C1=O
pEC50 (Jurkat): 7.04
pEC50 (Exportin-1): 8.70
selectivity ratio (XPO1): 46
half-life [1]: < 10 min
microsomal CLint [2]: > 139 µL/min/mg

CO[C@H]1CCN(c2nc(NN3C(=O)C=C(C)C3=O)ccc2C(F)(F)F)C1
pEC50 (Jurkat): 6.31
pEC50 (Exportin-1): 7.69
selectivity ratio (XPO1): 24.1

CC1=CC(=O)N(Nc2ccc(C(F)(F)F)c(N3CC4(CCC4)C3)n2)C1=O
pEC50 (Jurkat): 7.09
pEC50 (Exportin-1): 7.89
selectivity ratio (XPO1): 6.3

CC1=CC(=O)N(N(C)c2ccc(C(F)(F)F)c(N3CCCC(F)(F)C3)n2)C1=O
pEC50 (Jurkat): 7.15
pEC50 (Exportin-1): 7.96
selectivity ratio (XPO1): 6.4

CC1=CC(=O)N(Nc2cc(C(F)(F)F)cc(C(F)(F)F)n2)C1=O
pEC50 (Jurkat): 7.04
pEC50 (Exportin-1): 7.74

CC1=CC(=O)N(Nc2nc(N(C)C3CCCC3)nn3cccc23)C1=O
pEC50 (Jurkat): 6.37
pEC50 (Exportin-1): 7.10
selectivity ratio (XPO1): 5.3

CC1=CC(=O)N(N(C)c2ccc(C(F)(F)F)c(N3CCCCC3)n2)C1=O
pEC50 (Jurkat): 7.18
pEC50 (Exportin-1): 8.28
selectivity ratio (XPO1): 12.5

COc1cccc2nc(-c3cccs3)nc(NN3C(=O)C=C(C)C3=O)c12 [AS-602868]
pEC50 (Jurkat): 7.52
pEC50 (Exportin-1): 8.23
selectivity ratio (XPO1): 5.1
half-life [1]: < 10 min
microsomal CLint [2]: > 139 µL/min/mg

CC1=CC(=O)N(Nc2nc(-c3ccno3)nn3cccc23)C1=O
pEC50 (Jurkat): 5.25
pEC50 (Exportin-1): 6.26
selectivity ratio (XPO1): 10.2

CC1=CC(=O)N(Nc2ccc(C(F)(F)F)c(-c3ccnn3C)n2)C1=O
pEC50 (Jurkat): 5.76
pEC50 (Exportin-1): 6.14
selectivity ratio (XPO1): 2.4

CC1=CC(=O)N(Nc2ccc(C(F)(F)F)c(-n3ccnc3)n2)C1=O
pEC50 (Jurkat): 5.72
pEC50 (Exportin-1): 6.35
selectivity ratio (XPO1): 4.2

CC1=C(C)C(=O)N(Nc2nc(C(F)(F)F)nn3cccc23)C1=O
pEC50 (Jurkat): 6.04
pEC50 (Exportin-1): 6.02
selectivity ratio (XPO1): 0.96

CC1=CC(=O)N(Nc2nc(-c3cccs3)nn3cccc23)C1=O
pEC50 (Jurkat): 6.77
pEC50 (Exportin-1): 7.35
selectivity ratio (XPO1): 3.8

CC1=CC(=O)N(Nc2nc(C3CCCC3)nn3cccc23)C1=O
pEC50 (Jurkat): 6.02
pEC50 (Exportin-1): 6.77
selectivity ratio (XPO1): 5.6

CC1=CC(=O)N(Nc2cc(C(F)(F)F)cc(N3CCCC3)n2)C1=O
pEC50 (Jurkat): 7.59
pEC50 (Exportin-1): 8.33
selectivity ratio (XPO1): 5.5

CC1=CC(=O)N(Nc2ccc(C(F)(F)F)c(N3CCCC3=O)n2)C1=O
pEC50 (Jurkat): 5.32
pEC50 (Exportin-1): 5.79
selectivity ratio (XPO1): 2.9

CC1=CC(=O)N(Nc2nc(-c3ccnn3C)nn3cccc23)C1=O
pEC50 (Jurkat): 5.88
pEC50 (Exportin-1): 6.60
selectivity ratio (XPO1): 5.3

CC1=CC(=O)N(Nc2ccc3cn[nH]c3n2)C1=O
pEC50 (Jurkat): 5.20
pEC50 (Exportin-1): 5.74
selectivity ratio (XPO1): 3.5

CC1=CC(=O)N(Nc2ccc(C(F)(F)F)c(C3CCCC3)n2)C1=O
pEC50 (Jurkat): 7.47
pEC50 (Exportin-1): 7.92
selectivity ratio (XPO1): 2.8
half-life [1]: < 10 min
microsomal CLint [2]: > 139 µL/min/mg

CC1=CC(=O)N(Nc2cc(N3CC(F)(F)C3)c(C(F)(F)F)cn2)C1=O
pEC50 (Jurkat): 6.11
pEC50 (Exportin-1): 7.22
selectivity ratio (XPO1): 12.8

CC1=CC(=O)N(Nc2nc(N3CCCC(F)(F)C3)nn3cccc23)C1=O
pEC50 (Jurkat): 6.08
pEC50 (Exportin-1): 6.65
selectivity ratio (XPO1): 3.7

CC1=CC(=O)N(Nc2cc(C(F)(F)F)c(C(F)(F)F)cn2)C1=O
pEC50 (Jurkat): 6.72
pEC50 (Exportin-1): 8.03
selectivity ratio (XPO1): 20.2
